One block for each molecule: values may come before it.
How the values were obtained:
[1] = target: T1, Human immunodeficiency virus type 1 protease (Human immunodeficiency virus 1, UniProt Q72874); assay: In vitro inhibition HIV-1 IIIB protease.
MT2 = assay: Effective concentration against HIV infected MT-2 cell line; format: functional, cell-based; conditions: Homo sapiens
[2] = target: T1, Human immunodeficiency virus type 1 protease; assay: In vitro inhibitory activity of compound against HIV protease from BRU (IIIB) strain of HIV- 1 virus was determined

SMILES: CC(C)[C@@H]1NC(=O)/C=C\CCCOc2ccc(cc2)C[C@@H]([C@H](O)CN2CC3CCCCC3C[C@H]2C(=O)NC(C)(C)C)NC1=O (stereo partly drawn)
- IC50 [1]: 7.3 nM
- EC50 (MT2): 36 nM

SMILES: CC(C)[C@H](NC(=O)c1ccc2ccccc2c1)C(=O)N[C@@H](Cc1ccccc1)[C@H](O)CN1CC2CCCCC2C[C@H]1C(=O)NC(C)(C)C (stereo partly drawn)
- IC50 [1]: 0.9 nM
- EC50 (MT2): 8 nM

SMILES: CC(C)(C)NC(=O)[C@@H]1C[C@@H]2CCCC[C@@H]2CN1C[C@@H](O)[C@@H]1Cc2ccc(cc2)OCCCCOc2cc3ccccc3cc2C(=O)N[C@@H](CC(N)=O)C(=O)N1
- IC50 [1]: 88 nM
- EC50 (MT2): 315 nM

SMILES: CC(C)(C)NC(=O)[C@@H]1CCCN1C[C@H](O)[C@@H]1Cc2ccc(cc2)OCCCOc2cc3ccccc3cc2C(=O)N[C@@H](CC(N)=O)C(=O)N1
- IC50 [1]: 90000 nM

SMILES: CC(C)[C@@H]1NC(=O)CCCCCCCOc2ccc(cc2)C[C@@H]([C@H](O)CN2CC3CCCCC3C[C@H]2C(=O)NC(C)(C)C)NC1=O (stereo partly drawn)
- IC50 [1]: 3.4 nM
- EC50 (MT2): 26 nM

SMILES: CC(C)(C)NC(=O)[C@@H]1CCCN1C[C@@H](O)[C@@H]1Cc2ccc(cc2)OCCCOc2cc3ccccc3cc2C(=O)N[C@@H](CC(N)=O)C(=O)N1
- IC50 [1]: 400 nM

SMILES: CC(C)[C@@H]1NC(=O)CCCCCCOc2ccc(cc2)C[C@@H]([C@H](O)CN2CC3CCCCC3C[C@H]2C(=O)NC(C)(C)C)NC1=O (stereo partly drawn)
- IC50 [1]: 1 nM
- EC50 (MT2): 4 nM

SMILES: CC(C)(C)NC(=O)[C@@H]1C[C@@H]2CCCC[C@@H]2CN1C[C@@H](O)[C@@H]1Cc2ccc(cc2)OCCOc2cc3ccccc3cc2C(=O)N[C@@H](CC(N)=O)C(=O)N1
- IC50 [1]: 13 nM
- EC50 (MT2): 18 nM

SMILES: CC(C)(C)NC(=O)[C@@H]1C[C@@H]2CCCC[C@@H]2CN1C[C@@H](O)[C@@H]1Cc2ccc(cc2)OCCCOc2cc3ccccc3cc2C(=O)N[C@@H](CC(N)=O)C(=O)N1
- IC50 [1]: 10 nM
- EC50 (MT2): 14 nM

SMILES: CC(=O)N[C@H](C(=O)N[C@@H](Cc1ccccc1)[C@H](O)CN1CC2CCCCC2C[C@H]1C(=O)NC(C)(C)C)C(C)C (stereo partly drawn)
- IC50 [1]: 3 nM
- EC50 (MT2): 29 nM

SMILES: CC(C)(C)NC(=O)[C@@H]1CCCN1C[C@@H](O)[C@@H]1Cc2ccc(cc2)OCCOc2cc3ccccc3cc2C(=O)N[C@@H](CC(N)=O)C(=O)N1
- IC50 [1]: 450 nM

- EC50 (MT2): 5 nM
SMILES: CC(C)(C)NC(=O)[C@@H]1C[C@@H]2CCCC[C@@H]2CN1C[C@@H](O)[C@H](Cc1ccccc1)NC(=O)[C@H](CC(N)=O)NC(=O)c1ccc2ccccc2n1

SMILES: CC(C)(C)NC(=O)[C@@H]1CCCN1C[C@@H](O)[C@@H]1Cc2ccc(cc2)OCCCCOc2cc3ccccc3cc2C(=O)N[C@@H](CC(N)=O)C(=O)N1
- IC50 [1]: 900 nM

SMILES: CC(C)[C@@H]1NC(=O)CCCCCOc2ccc(cc2)C[C@@H]([C@H](O)CN2CC3CCCCC3C[C@H]2C(=O)NC(C)(C)C)NC1=O (stereo partly drawn)
- IC50 [1]: 1.5 nM
- EC50 (MT2): 8 nM

SMILES: CC(C)[C@@H]1NC(=O)/C=C\CCCCCOc2ccc(cc2)C[C@@H]([C@H](O)CN2CC3CCCCC3C[C@H]2C(=O)NC(C)(C)C)NC1=O (stereo partly drawn)
- IC50 [1]: 25 nM
- EC50 (MT2): 216 nM

SMILES: CC(C)[C@@H]1NC(=O)/C=C\CCCCOc2ccc(cc2)C[C@@H]([C@H](O)CN2CC3CCCCC3C[C@H]2C(=O)NC(C)(C)C)NC1=O (stereo partly drawn)
- IC50 [2]: 9 nM
- EC50 (MT2): 31 nM

SMILES: CC(C)[C@@H]1NC(=O)c2cc3ccccc3cc2OCCCOc2ccc(cc2)C[C@@H]([C@H](O)CN2CC3CCCCC3C[C@H]2C(=O)NC(C)(C)C)NC1=O (stereo partly drawn)
- IC50 [1]: 5.5 nM
- EC50 (MT2): 17 nM

SMILES: CCCCCCC(=O)N[C@H](C(=O)N[C@@H](Cc1ccccc1)[C@H](O)CN1CC2CCCCC2C[C@H]1C(=O)NC(C)(C)C)C(C)C (stereo partly drawn)
- IC50 [1]: 6 nM
- EC50 (MT2): 378 nM

SMILES: CC(C)[C@@H]1NC(=O)c2ccccc2OCCCOc2ccc(cc2)C[C@@H]([C@H](O)CN2CC3CCCCC3C[C@H]2C(=O)NC(C)(C)C)NC1=O (stereo partly drawn)
- IC50 [1]: 8 nM
- EC50 (MT2): 20 nM

Reference: ChEMBL document CHEMBL1127974, “Design, synthesis, and activity of conformationally-constrained macrocyclic peptide-based inhibitors of HIV protease” (Bioorg Med Chem Lett, 1994)
